Measurements published in ChEMBL document CHEMBL1150257, “Synthesis and cytotoxicity of a salicylihalamide A analogue” (2008).

How the values were obtained:
Format in all cases: functional
MDA-MB-435 = test: Cytotoxicity against human MDA-MB-435 cells
SR = test: Cytotoxicity against human SR cells
MCF7 = test: Cytotoxicity against human MCF7 cells
SK-MEL-5 = test: Cytotoxicity against human SK-MEL-5 cells

Row | SMILES | GI50 (MDA-MB-435) | GI50 (SR) | GI50 (MCF7) | GI50 (SK-MEL-5)
1 | CC/C=C\C=C/C(=O)N/C=C/CC1Cc2cccc(O)c2C(=O)O1 (racemic) | 11 µM | 2 µM | 49 µM | 27 µM
2 | CC/C=C\C=C/C(=O)N/C=C/C[C@H]1C[C@@H](O)[C@@H](C)C/C=C/Cc2cccc(O)c2C(=O)O1 [SALICYLIHALAMIDE A] | – | – | – | 0.007 µM
